Results from patent US4241064A, “9H-Pyrido[3,4-b]indole derivatives” (Nippon Shinyaku Co. Ltd., priority 1978, dated 1980).
Like-named read-outs stand apart in the source and are kept apart here. Values belong to the molecule of their own block, whether it stands above or below them.

Experiments:
xanthine-oxidase = xanthine-oxidase (Bos taurus, UniProt P80457); experiment: xanthine-oxidase inhibitory activity (pre-incubation 5 min, then 10 μM xanthine; Kalker); type: biochemical; conditions: Table I; phosphate buffer pH 7.5, 10 μM xanthine; read-out: IC50 (xanthine-oxidase inhibition) (converted)
xanthine-oxidase, sequence (P80457 whole entry): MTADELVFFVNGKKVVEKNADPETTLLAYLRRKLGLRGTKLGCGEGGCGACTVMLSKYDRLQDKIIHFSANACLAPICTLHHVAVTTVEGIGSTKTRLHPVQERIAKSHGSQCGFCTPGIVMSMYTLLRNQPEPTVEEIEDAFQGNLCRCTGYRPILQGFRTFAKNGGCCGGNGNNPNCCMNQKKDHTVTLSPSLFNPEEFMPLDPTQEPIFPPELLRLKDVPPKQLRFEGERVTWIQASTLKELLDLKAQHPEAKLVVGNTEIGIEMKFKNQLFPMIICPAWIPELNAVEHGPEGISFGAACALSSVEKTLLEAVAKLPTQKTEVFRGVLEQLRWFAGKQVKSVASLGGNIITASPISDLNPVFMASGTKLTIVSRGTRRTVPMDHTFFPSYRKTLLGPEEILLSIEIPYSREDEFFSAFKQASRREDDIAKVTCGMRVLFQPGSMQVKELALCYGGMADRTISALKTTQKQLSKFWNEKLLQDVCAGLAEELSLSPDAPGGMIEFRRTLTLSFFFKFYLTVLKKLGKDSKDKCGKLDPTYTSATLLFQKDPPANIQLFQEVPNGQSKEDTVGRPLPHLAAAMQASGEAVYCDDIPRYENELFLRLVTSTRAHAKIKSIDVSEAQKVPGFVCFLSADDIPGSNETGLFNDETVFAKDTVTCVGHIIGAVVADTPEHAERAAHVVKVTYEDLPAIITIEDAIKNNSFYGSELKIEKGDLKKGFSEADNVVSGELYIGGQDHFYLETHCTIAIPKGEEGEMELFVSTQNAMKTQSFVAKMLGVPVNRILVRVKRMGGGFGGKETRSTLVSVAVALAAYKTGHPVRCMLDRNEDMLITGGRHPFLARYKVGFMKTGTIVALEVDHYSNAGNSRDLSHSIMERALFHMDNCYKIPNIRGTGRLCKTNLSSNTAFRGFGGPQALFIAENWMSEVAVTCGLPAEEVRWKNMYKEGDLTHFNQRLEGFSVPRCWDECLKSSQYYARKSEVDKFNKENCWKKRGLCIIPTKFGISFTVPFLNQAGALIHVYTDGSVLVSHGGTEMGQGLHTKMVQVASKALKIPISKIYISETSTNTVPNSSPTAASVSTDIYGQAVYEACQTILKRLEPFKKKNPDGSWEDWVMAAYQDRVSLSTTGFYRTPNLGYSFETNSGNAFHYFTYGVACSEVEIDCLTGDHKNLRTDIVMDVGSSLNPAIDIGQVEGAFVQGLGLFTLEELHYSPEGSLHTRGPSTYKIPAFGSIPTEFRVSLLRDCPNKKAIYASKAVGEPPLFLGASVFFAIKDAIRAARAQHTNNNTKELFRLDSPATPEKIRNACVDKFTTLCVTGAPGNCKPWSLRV
Excerpt: The foregoing compounds have the property of inhibiting the enzyme xanthine-oxidase. As is known, xanthine-oxidase inhibitors improve hyperuricacidemia by suppressing the formation of uric acid and, as such, find use as therapeutic and prophylactic agents in the treatment of gout, calculus in the urinary organ, tissue degeneration of the circulatory system, and the like. The xanthine-oxidase inhibitory activity is expressed in terms of the concentration of the agent at which a 50% inhibition of xanthine-oxidase activity is observed (IC50). This can be readily measured pre-incubation of test specimens at varying concentrations in phosphate buffer (pH 7.5) for 5 minutes, then adding 10 μM of xanthine, measuring the enzyme activity (Kalker), and comparing the assay result with the activity of a control to determine the percent inhibition. (The IC50 value being derived from a plot of concentration versus percent inhibition).
According to the present invention, commercial picrasma wood, dry pulverized picrasma wood or, preferably, the dry pulverized powder of its heart wood, is extracted with a polar organic solvent such as water or methanol and the extract is then concentrated to yield a whole picrasma extract. This extract is then fractionated as for example by Sephadex LH or silica gel chromatography. The fractions are assayed for xanthine-oxidase inhibitory activity and the active fraction this then purified as by recrystallization.

Ehrlich ascites cells [1] = experiment: survival of mice transplanted with Ehrlich ascites cells, i.p. dosing for 7 consecutive days (potentiation of mitomycin C); type: in vivo, ddY mice; conditions: for Survival Rate (%): i.p. 7 days, compound 1 50 mg/kg/day, mitomycin C 0.5 mg/kg/day
Procedure: (§1) Thus, ddY mice (male, body weights ca 18 g) were reared for a week and 1×10^6 Ehrlich ascites cells/animal were intraperitoneally transplanted. After 24 hours, mitomycin C or/and compound 1 were administered intraperitoneally for 7 consecutive days.

Ehrlich ascites cells [2] = conditions: single i.p. at day 6, mitomycin C 1 mg/kg, compound 1 50 mg/kg
Procedure: as §1

IC50 (xanthine-oxidase): 1.79 µM
SMILES: O=Cc1nc(O)cc2c1[nH]c1ccccc12 [H OH CHO, 1-Formyl-3-Hydroxy-9H-Pyrido[3,4-b]Indole]

IC50 (xanthine-oxidase): 78.4 µM
SMILES: COC(=O)c1ncc(O)c2c1[nH]c1ccccc12 [OH H COOCH3, 1-Carbomethoxy-4-Hydroxy-9H-Pyrido[3,4-b]Indole]

SMILES: O=Cc1ncc(O)c2c1[nH]c1ccccc12 [Compound 1, 1-formyl-4-hydroxy-9H-pyrido[3,4-b]indole]
IC50 (xanthine-oxidase): 0.00306 µM
Survival Rate (%) (Ehrlich ascites cells [1]; Day 16): 100%
Survival Rate (%) (Ehrlich ascites cells [1]; Day 17): 90%
Survival Rate (%) (Ehrlich ascites cells [1]; Day 18): 80%
Survival Rate (%) (Ehrlich ascites cells [1]; Day 19): 80%
Survival Rate (%) (Ehrlich ascites cells [1]; Day 20): 70%
Survival Rate (%) (Ehrlich ascites cells [1]; Day 21): 70%
Survival Rate (%) (Ehrlich ascites cells [1]; Day 22): 40%
Survival Rate (%) (Ehrlich ascites cells [1]; Day 23): 30%
Survival Rate (%) (Ehrlich ascites cells [1]; Day 24): 10%
Survival Rate (%) (Ehrlich ascites cells [1]; Day 25): 10%
Survival Rate (%) (Ehrlich ascites cells [1]; Day 26): 10%
potentiation of the antitumor activity of mitomycin C and similar antibiotics (Ehrlich ascites cells [1]; result in words, conventional laboratory models): significant potentiation of the antitumor activity of mitomycin C

SMILES: CO[C@@]12[C@H](COC(N)=O)C3=C(C(=O)C(C)=C(N)C3=O)N1C[C@@H]1N[C@@H]12 [Mitomycin, mitomycin C]
Survival Rate (%) (Ehrlich ascites cells [1]; Day 16): 100%
Survival Rate (%) (Ehrlich ascites cells [1]; Day 17): 100%
Survival Rate (%) (Ehrlich ascites cells [1]; Day 18): 100%
Survival Rate (%) (Ehrlich ascites cells [1]; Day 19): 100%
Survival Rate (%) (Ehrlich ascites cells [1]; Day 20): 100%
Survival Rate (%) (Ehrlich ascites cells [1]; Day 21): 100%
Survival Rate (%) (Ehrlich ascites cells [1]; Day 22): 90%
Survival Rate (%) (Ehrlich ascites cells [1]; Day 23): 90%
Survival Rate (%) (Ehrlich ascites cells [1]; Day 24): 90%
Survival Rate (%) (Ehrlich ascites cells [1]; Day 25): 90%
Survival Rate (%) (Ehrlich ascites cells [1]; Day 26): 90%
Survival Rate (%) (Ehrlich ascites cells [1]; Day 27): 90%
Survival Rate (%) (Ehrlich ascites cells [1]; Day 28): 80%
Survival Rate (%) (Ehrlich ascites cells [1]; Day 29): 70%
Survival Rate (%) (Ehrlich ascites cells [1]; Day 30): 70%
Survival Rate (%) (Ehrlich ascites cells [1]; Day 33): 70%
Survival Rate (%) (Ehrlich ascites cells [1]; Day 34): 60%
Survival Rate (%) (Ehrlich ascites cells [1]; Day 38): 60%
Survival Rate (%) (Ehrlich ascites cells [1]; Day 39): 50%
Survival Rate (%) (Ehrlich ascites cells [1]; Day 48): 50%
Survival Rate (%) (Ehrlich ascites cells [1]; Day 49): 40%
Survival Rate (%) (Ehrlich ascites cells [1]; Day 52): 40%
Survival Rate (%) (Ehrlich ascites cells [1]; Day 53): 30%
Survival Rate (%) (Ehrlich ascites cells [1]; Day 56): 30%
Survival Rate (%) (Ehrlich ascites cells [1]; Day 57): 20%
Survival Rate (%) (Ehrlich ascites cells [1]; Day 58): 20%
Survival Rate (%) (Ehrlich ascites cells [1]; Day 59): 20%
Survival Rate (%) (Ehrlich ascites cells [1]; Day 60 after transplantation): 20%
No. Surviving (Ehrlich ascites cells [2]; Day 10): 7
No. Surviving (Ehrlich ascites cells [2]; Day 11): 7
No. Surviving (Ehrlich ascites cells [2]; Day 12): 7
No. Surviving (Ehrlich ascites cells [2]; Day 13): 7
No. Surviving (Ehrlich ascites cells [2]; Day 14): 7
No. Surviving (Ehrlich ascites cells [2]; Day 15): 7
No. Surviving (Ehrlich ascites cells [2]; Day 16): 7
No. Surviving (Ehrlich ascites cells [2]; Day 17): 7
No. Surviving (Ehrlich ascites cells [2]; Day 18): 5
No. Surviving (Ehrlich ascites cells [2]; Day 19): 5
No. Surviving (Ehrlich ascites cells [2]; Day 20): 4
No. Surviving (Ehrlich ascites cells [2]; Day 21): 4
No. Surviving (Ehrlich ascites cells [2]; Day 22): 4
No. Surviving (Ehrlich ascites cells [2]; Day 23): 2
No. Surviving (Ehrlich ascites cells [2]; Day 24): 2
No. Surviving (Ehrlich ascites cells [2]; Day 25): 1
No. Surviving (Ehrlich ascites cells [2]; Day 26): 1
No. Surviving (Ehrlich ascites cells [2]; Day 27): 1
No. Surviving (Ehrlich ascites cells [2]; Day 28): 1

IC50 (xanthine-oxidase): 4.08 µM
SMILES: O=Cc1nccc2c1[nH]c1ccccc12 [H H CHO]

IC50 (xanthine-oxidase): 177 µM
SMILES: COC(=O)c1nccc2c1[nH]c1ccccc12 [H H COOCH3, 1-carbomethoxy-9H-pyrido[3,4-b]indole]

IC50 (xanthine-oxidase): 1.1 µM
SMILES: O=C(O)c1ncc(O)c2c1[nH]c1ccccc12 [OH H COOH, 1-Carboxy-4-Hydroxy-9H-Pyrido[3,4-b]Indole]

IC50 (xanthine-oxidase): 21.7 µM
SMILES: OCc1nccc2c1[nH]c1ccccc12 [H H CH2 OH, 1-Hydroxymethyl-9H-Pyrido[3,4-b]Indole]

IC50 (xanthine-oxidase): 0.336 µM
SMILES: OCc1ncc(O)c2c1[nH]c1ccccc12 [OH H CH2 OH, 1-Hydroxymethyl-4-Hydroxy-9H-pyrido[3,4-b]Indole]

SMILES: CC(=O)Oc1cnc(C=O)c2[nH]c3ccccc3c12 [OCOCH3 H CHO, 1-Formyl-4-Acetoxy-9H-Pyrido[3,4-b]Indole]
IC50 (xanthine-oxidase): 0.00669 µM
